# How the values were obtained:
# [1] = apparent partition coefficient n-octanol / phosphate buffer pH 7,4 (method of Hansch et al.); format: physicochemical; conditions: n-octanol / aqueous phosphate buffer pH 7,4
# Description: Wie oben erwähnt, zeigen die erfindungsgemässen Verbindungen grössere Stabilität und Lipophilität als bekannte Nucleotidderivate. In der nachstehenden Tabelle I sind für ausgewählte erfindungsgemässe Verbindungen die gemessenen Verteilungskoeffizienten angegeben, die wiederum ein Anzeichen für die Lipophilität der Verbindung darstellt. Tabelle I
# [2] = stability in methanol/water (HPLC); format: physicochemical
# Description: (§1) Die Stabilität ausgewählter erfindungsgemässer Verbindungen in Methanol/Wasser oder menschlichem Blutplasma wurde wie nachstehend angegeben geprüft:
# (§2) Zunächst wurden die HPLC-Bedingungen für die Probenmessung bestimmt, d.h. eine Revers-Phasen C-18-Säule mit einem Lösungsmittelsystem mit variierenden Verhältnissen von Methanol: […] Natriumphosphat, pH 6,8.
# (§3) Danach wurde die maximale UV-Absorption für jede Probe und die grösste Stabilität unter Laborbedingungen für jede Probe in Methanol:Wasser bestimmt. Danach wurde die Stabilität im menschlichen Plasma untersucht.
# (§4) Die HPLC-Apparatur war ein Gradientsystem bestehend aus einem Modell 1601 Gradient Master, einer Constametric I Pumpe und einer Constametric III Pumpe. Weiterhin wurden ein LDC-Spectromometer III als Detektor und ein Waters 712B Wisp Autoinjektor verwendet. Allen Proben wurde eine ODS-3 RAC II, 5 µ, 15 cm x 4,0 mm ID-Säule (Whatmann, Clifton, N.J.) verwendet. Das Lösungsmittelsystem bestand aus Methanol: 0,001M NaH₂PO₄ (pH 6,8) in den folgenden Proportionen: 1b, 2b - 50:50; 1a, 2a - 43:57; 1c, 2c - 50:50.
# Jede Verbindung wurde in ein konisches 15 ml Teströhrchen eingewogen und in DMSO gelöst, so dass eine Vorratslösung von 10 mg/ml erhalten wurde. Die Proben für die Standardkurve wurden durch Verdünnen der DMSO-Vorratslösung mit der mobilen Phasen wie folgt hergestellt:
# (§5) Die chromatographischen Daten wurden mit einem Nelson 3000 Datasystem gesammelt. Peakhöhen der Kalibrierungs-Standards jeder Verbindung wurden gemessen und gegen bekannte Konzentrationen aufgetragen. Eine lineare Kurve der kleinsten Quadrate (ungewichtet) wurde berechnet und alle Probenkonzentrationen wurden aus dieser Kurve rückgerechnet. Die Resultate sind in den Tabellen II-VIII zusammengestellt. Tabelle II
# [3] = stability in human plasma at 37°C (HPLC); format: in vitro ADME; conditions: human plasma 37°C; for % N, O-Diacyl (1a): incubated 1a; for % N, O-Diacyl (1b): incubated 1b; for % N, O-Diacyl (1c): incubated 1c; for % N-Acyl (2a): incubated 2a; for % N-Acyl (2b): incubated 2b; for % N-Acyl (2c): incubated 2c
# Description: as §1
# Die folgenden Verbindungen wurden auf Stabilität im menschlichen Plasma geprüft:
# as §2, §3
# Das im Experiment verwendete menschliche Plasma wurde bis zur Verwendung eingefroren.
# as §4
# Jede Verbindung wurde in ein konisches 15 ml Teströhrchen eingewogen und in DMSO gelöst, so dass eine Vorratslösung von 10 mg/ml erhalten wurde. Die Proben für die Standardkurve wurden durch Verdünnen der DMSO-Vorratslösung mit der mobilen Phasen wie folgt hergestellt: […]
# as §5
smiles,measurement,setting,value
"Nc1ccn([C@H]2C=C[C@@H](CO)O2)c(=O)n1 [2′,3′-Didehydro-2′,3′-dideoxycytidin, reference compound]","Scheinbarer Verteilungskoeffizient zwischen n-Octanol und Phosphatpuffer pH 7,4",[1],0.03
"CC(=O)OC[C@@H]1CC[C@H](n2ccc(N)nc2=O)O1 [2′,3′-Dideoxycytidin 5′-acetat]","Scheinbarer Verteilungskoeffizient zwischen n-Octanol und Phosphatpuffer pH 7,4",[1],0.14
"Nc1ccn([C@H]2CC[C@@H](CO)O2)c(=O)n1 [2′,3′-Dideoxycytidin, reference compound]","Scheinbarer Verteilungskoeffizient zwischen n-Octanol und Phosphatpuffer pH 7,4",[1],0.05
"CC(=O)Nc1ccn([C@H]2C=C[C@@H](COC(C)=O)O2)c(=O)n1 [N-Acetyl 2′,3′-didehydro-2′,3′-dideoxycytidin 5′-acetat]","Scheinbarer Verteilungskoeffizient zwischen n-Octanol und Phosphatpuffer pH 7,4",[1],0.39
"CC(=O)Nc1ccn([C@H]2CC[C@@H](COC(C)=O)O2)c(=O)n1 [N-Acetyl 2′,3′-dideoxycytidin 5′-acetat]","Scheinbarer Verteilungskoeffizient zwischen n-Octanol und Phosphatpuffer pH 7,4",[1],0.62
"CC(=O)Nc1ccn([C@H]2CC[C@@H](CO)O2)c(=O)n1 [N-Acetyl 2′,3′-dideoxycytidin]","Scheinbarer Verteilungskoeffizient zwischen n-Octanol und Phosphatpuffer pH 7,4",[1],0.22
"O=C(Nc1ccn([C@H]2CC[C@@H](CO)O2)c(=O)n1)c1ccccc1 [N-Benzoyl 2′,3′-dideoxycytidin]","Scheinbarer Verteilungskoeffizient zwischen n-Octanol und Phosphatpuffer pH 7,4",[1],15.0
"CCCCCCCCCCCCCCCC(=O)Nc1ccn([C@H]2CC[C@@H](COC(=O)CCCCCCCCCCCCCCC)O2)c(=O)n1 [N-Palmitoyl 2′,3′-dideoxycytidin 5′-palmitoat]","Scheinbarer Verteilungskoeffizient zwischen n-Octanol und Phosphatpuffer pH 7,4",[1],> 1000
"CCC(=O)Nc1ccn([C@H]2CC[C@@H](COC(=O)CC)O2)c(=O)n1 [Verbindung 1a, N-Propanoyl 2′,3′-dideoxycytidin 5′-propanoat]","Scheinbarer Verteilungskoeffizient zwischen n-Octanol und Phosphatpuffer pH 7,4",[1],6.8
same,"% N, O-Diacyl (1a,1b,1c)",[2]; time 0 days,100%
same,"% N, O-Diacyl (1a,1b,1c)",[2]; time 14 days,43%
same,"% N-Acyl (2a,2b, 2c)",[2]; time 14 days,18%
same,"% O-Acyl- (3a,3b,3c)",[2]; time 14 days,27%
same,"% N, O-Diacyl (1a)",[3]; time 0 (Tage),86%
same,"% N, O-Diacyl (1a)","[3]; time 0,5 (Tage)",70%
same,"% N, O-Diacyl (1a)",[3]; time 1 (Tage),40%
same,"% N, O-Diacyl (1a)",[3]; time 2 (Tage),17%
same,"% N, O-Diacyl (1a)",[3]; time 4 (Tage),10%
same,"% N, O-Diacyl (1a)",[3]; time 24 (Tage),1%
"CC(C)C(=O)Nc1ccn([C@H]2CC[C@@H](COC(=O)C(C)C)O2)c(=O)n1 [Verbindung 1b, N-(2-Methylpropanoyl) 2′,3′-dideoxycytidin 5′-(2-methylpropanoat)]","Scheinbarer Verteilungskoeffizient zwischen n-Octanol und Phosphatpuffer pH 7,4",[1],58.0
same,"% N, O-Diacyl (1a,1b,1c)",[2]; time 0 days,100%
same,"% N, O-Diacyl (1a,1b,1c)",[2]; time 14 days,73%
same,"% N-Acyl (2a,2b, 2c)",[2]; time 14 days,8%
same,"% O-Acyl- (3a,3b,3c)",[2]; time 14 days,17%
same,% ddC 4,[2]; time 14 days,2%
same,"% N, O-Diacyl (1b)",[3]; time 0 (Tage),95%
same,"% N, O-Diacyl (1b)","[3]; time 0,5 (Tage)",83%
same,"% N, O-Diacyl (1b)",[3]; time 1 (Tage),38%
same,"% N, O-Diacyl (1b)",[3]; time 2 (Tage),9%
same,"% N, O-Diacyl (1b)",[3]; time 4 (Tage),4%
same,"% N, O-Diacyl (1b)",[3]; time 24 (Tage),3%
"CCCC(=O)Nc1ccn([C@H]2CC[C@@H](COC(=O)CCC)O2)c(=O)n1 [Verbindung 1c, N-Butanoyl 2′,3′-dideoxycytidin 5′-butanoat]","Scheinbarer Verteilungskoeffizient zwischen n-Octanol und Phosphatpuffer pH 7,4",[1],70.0
same,"% N, O-Diacyl (1a,1b,1c)",[2]; time 0 days,100%
same,"% N, O-Diacyl (1a,1b,1c)",[2]; time 14 days,43%
same,"% N-Acyl (2a,2b, 2c)",[2]; time 14 days,20%
same,"% O-Acyl- (3a,3b,3c)",[2]; time 14 days,32%
same,% ddC 4,[2]; time 14 days,25%
same,"% N, O-Diacyl (1c)",[3]; time 0 (Tage),64%
same,"% N, O-Diacyl (1c)","[3]; time 0,5 (Tage)",23%
same,"% N, O-Diacyl (1c)",[3]; time 1 (Tage),10%
same,"% N, O-Diacyl (1c)",[3]; time 2 (Tage),7%
same,"% N, O-Diacyl (1c)",[3]; time 4 (Tage),6%
same,"% N, O-Diacyl (1c)",[3]; time 24 (Tage),6%
"CCC(=O)Nc1ccn([C@H]2CC[C@@H](CO)O2)c(=O)n1 [Verbindung 2a, N-Propanoyl 2′,3′-dideoxycytidin]","Scheinbarer Verteilungskoeffizient zwischen n-Octanol und Phosphatpuffer pH 7,4",[1],0.83
same,"% N-Acyl (2a,2b, 2c)",[2]; time 0 days,100%
same,"% N-Acyl (2a,2b, 2c)",[2]; time 14 days,56%
same,% ddC 4,[2]; time 14 days,28%
same,% N-Acyl (2a),[3]; time 0 (Tage),97%
same,% N-Acyl (2a),"[3]; time 0,5 (Tage)",87%
same,% N-Acyl (2a),[3]; time 1 (Tage),85%
same,% N-Acyl (2a),[3]; time 2 (Tage),96%
same,% N-Acyl (2a),[3]; time 4 (Tage),99%
same,% N-Acyl (2a),[3]; time 24 (Tage),80%
"CC(C)C(=O)Nc1ccn([C@H]2CC[C@@H](CO)O2)c(=O)n1 [Verbindung 2b, N-(2-Methylpropanoyl) 2′,3′-dideoxycytidin]","Scheinbarer Verteilungskoeffizient zwischen n-Octanol und Phosphatpuffer pH 7,4",[1],2.38
same,"% N-Acyl (2a,2b, 2c)",[2]; time 0 days,100%
same,"% N-Acyl (2a,2b, 2c)",[2]; time 14 days,83%
same,"% O-Acyl- (3a,3b,3c)",[2]; time 14 days,17%
same,% ddC 4,[2]; time 14 days,2%
same,% N-Acyl (2b),[3]; time 0 (Tage),83%
same,% N-Acyl (2b),"[3]; time 0,5 (Tage)",88%
same,% N-Acyl (2b),[3]; time 1 (Tage),61%
same,% N-Acyl (2b),[3]; time 2 (Tage),78%
same,% N-Acyl (2b),[3]; time 4 (Tage),89%
same,% N-Acyl (2b),[3]; time 24 (Tage),92%
"CCCC(=O)Nc1ccn([C@H]2CC[C@@H](CO)O2)c(=O)n1 [Verbindung 2c, N-Butanoyl 2′,3′-dideoxycytidin]","Scheinbarer Verteilungskoeffizient zwischen n-Octanol und Phosphatpuffer pH 7,4",[1],2.67
same,"% N-Acyl (2a,2b, 2c)",[2]; time 0 days,100%
same,"% N-Acyl (2a,2b, 2c)",[2]; time 14 days,76%
same,% ddC 4,[2]; time 14 days,20%
same,% N-Acyl (2c),[3]; time 0 (Tage),101%
same,% N-Acyl (2c),"[3]; time 0,5 (Tage)",95%
same,% N-Acyl (2c),[3]; time 1 (Tage),92%
same,% N-Acyl (2c),[3]; time 2 (Tage),90%
same,% N-Acyl (2c),[3]; time 4 (Tage),85%
same,% N-Acyl (2c),[3]; time 24 (Tage),77%

# Source: patent EP0311100A2, “Derivatives of dideoxycytidine, their preparation and pharmaceutical use” (F. HOFFMANN-LA ROCHE AG, priority 1987, dated 1989)
